# Experimental data from patent publication US3985738A, “7-(D-. alpha.-Hydroxy-2-arylacetamido)-3-(tetrazolo-[4,5-b]pyridazin-6-ylthiomet hyl)-3-cephem-4-carboxylic acids” (Bristol-Myers Company, priority 1974, dated 1976).
# What was measured:
# Assay in all cases: In vitro antibacterial activity, tube dilution method (Nutrient Broth)
# Type in all cases: cell-based
# Pr. morganii A15153 = settings: Morganella morganii
# Description: (§1) In vitro Antibacterial Activity of BB-S266 by Tube Dilution Method (Nutrient Broth).
# S. aureus Russel = settings: Staphylococcus aureus
# Description: as §1
# Kl. pneumoniae A9977 = settings: Klebsiella pneumoniae
# Description: as §1
# Mycobacterium 607 = tested on: Mycobacterium 607
# Description: as §1
# Ps. aeruginosa A9843 = settings: Pseudomonas aeruginosa
# Description: as §1
# Sal. enteritidis A9531 = settings: Salmonella enterica
# Description: as §1
# Ser. marcescens A20019 = settings: Serratia marcescens
# Description: as §1
# St. pyogenes A9604 = settings: Streptococcus pyogenes
# Description: as §1
# E. coli Juhl A15119 = settings: Escherichia coli, JUHLA15119
# Description: as §1
# Pr. mirabilis A9900 = settings: Proteus mirabilis
# Description: as §1
# E. coli NIHJ = settings: Escherichia coli
# Description: as §1
# Kl. pneumoniae A15130 = settings: Klebsiella pneumoniae
# Description: as §1
# S. aureus Smith = settings: Staphylococcus aureus
# Description: as §1
# S. aureus BX-1633 = settings: Staphylococcus aureus, BX1633
# Description: as §1
# E. coli ATCC 8739 = settings: Escherichia coli, ATCC8739
# Description: as §1
# Dip. pneumoniae = settings: Streptococcus pneumoniae
# Description: as §1
smiles,measurement,setting,value
"O=C(O)C1=C(CSc2ccc3nnnn3n2)CS[C@@H]2C(NC(=O)[C@H](O)c3ccccc3)C(=O)N12 (stereo partly drawn) [BB-S266, 7-(D-α-HYDROXY-α-PHENYLACETAMIDO)-3-(TETRAZOLO[4,5-B]PYRIDAZIN-6-YLTHIOMETHYL)-3-CEPHEM-4-CARBOXYLIC ACID]",MIC,Pr. morganii A15153,50 µg/mL
same,MIC,S. aureus Russel,0.4 µg/mL
same,MIC,Kl. pneumoniae A9977,3.1 µg/mL
same,MIC,Mycobacterium 607,< 100 µg/mL
same,MIC,Ps. aeruginosa A9843,< 100 µg/mL
same,MIC,Sal. enteritidis A9531,0.4 µg/mL
same,MIC,Ser. marcescens A20019,100 µg/mL
same,MIC,St. pyogenes A9604,0.01 µg/mL
same,MIC,E. coli Juhl A15119,3.1 µg/mL
same,MIC,Pr. mirabilis A9900,6.3 µg/mL
same,MIC,E. coli NIHJ,0.08 µg/mL
same,MIC,Kl. pneumoniae A15130,3.1 µg/mL
same,MIC,S. aureus Smith; S. aureus Smith,0.1 µg/mL
same,MIC,S. aureus Smith; S. aureus Smith + 50% serum,0.2 µg/mL
same,MIC,S. aureus BX-1633,0.8 µg/mL
same,MIC,E. coli ATCC 8739,1.6 µg/mL
same,MIC,Dip. pneumoniae,0.01 µg/mL
